# In PMC11279916, “Application of ^99mTc-Labeled WL12 Peptides as a Tumor PD-L1-Targeted SPECT Imaging Agent: Kit Formulation, Preclinical Evaluation, and Study on the Influence of Coligands” (Pharmaceuticals, 2024):
# Molecular target: PD-L1 protein (Homo sapiens, UniProt Q9NZQ7)
# Experiment: TR-FRET in vitro affinity assay (IC50)
# Format: binding
# Conditions: PD-L1-biotin / PD-1-Eu
# Procedure: Fig. S3. HPLC analysis of HYNIC-WL12 (tR = 14.29 min, purity 95.84%).
# In Vitro Affinity Assay: Determination of IC50
# The affinity of WL12 and HYNIC-WL12 for the PD-L1 protein was determined via a time-resolved fluorescence energy transfer (TR-FRET) assay. In brief, 200 nL of WL12 or HYNIC-WL12 solutions at different concentrations (from 0.5-10000 nM) in 10% ethanol were transferred to 384-well plates on an Echo550 […]
# instrument. Then, 5 µL of PD-L1-biotin solution was added, and the plates were centrifuged at 1000 rpm for 30 s and incubated at room temperature. After incubation for 15 min, the mixed solution containing PD-1-Eu and dye-labeled acceptor was added. Then, the plates were centrifuged at 1000 rpm for 30 s and incubated for 90 min at room temperature. Finally, the 665 nm-to-615 nm ratios were read on a microplate reader, and the IC50 values of the two peptides were calculated. […]
# For RP-HPLC analysis of [99mTc]Tc-HYNIC-WL12-tricine/M, phase A was water containing 0.1% trifluoroacetic acid (TFA), and phase B was acetonitrile containing 0.1% trifluoroacetic acid (TFA). […] Additionally, the radiochemical purity of [99mTc]Tc-HYNIC-WL12-tricine/M was determined by instant thin layer chromatography on silica gel (iTLC-SG, Agilent, China) using acid-citrate-dextrose solution (ACD solution, pH = 4.5-5.5) as the mobile phase solvent. […]
# Effect of HYNIC-WL12 Quantities on the Radiochemical Yield […]
# PD-L1 protein, sequence (Q9NZQ7 19-238 limits assumed): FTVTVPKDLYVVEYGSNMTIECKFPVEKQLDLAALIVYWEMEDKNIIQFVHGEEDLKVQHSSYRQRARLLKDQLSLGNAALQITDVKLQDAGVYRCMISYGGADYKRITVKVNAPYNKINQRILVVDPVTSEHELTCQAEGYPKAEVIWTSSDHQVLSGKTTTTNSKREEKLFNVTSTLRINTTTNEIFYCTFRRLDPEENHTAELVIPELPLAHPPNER
structure (smiles),measurement,value
CCCC[C@H]1C(=O)N(C)[C@@H](CCCC)C(=O)N[C@@H](CCCNC(=O)c2ccc(NN)nc2)C(=O)N[C@H](C(=O)NCC(N)=O)CSCC(=O)N[C@@H](Cc2ccc(O)cc2)C(=O)N(C)[C@@H](C)C(=O)N[C@@H](CC(N)=O)C(=O)N2CCC[C@H]2C(=O)N[C@@H](Cc2c[nH]cn2)C(=O)N[C@@H](CC(C)C)C(=O)N2C[C@H](O)C[C@H]2C(=O)N[C@@H](Cc2c[nH]c3ccccc23)C(=O)N[C@@H](CO)C(=O)N[C@@H](Cc2cn(C)c3ccccc23)C(=O)N1C [HYNIC-WL12],IC50,170 nM
